We go through three compounds from patent US20210134398A1, “Combinatorial Chemistry Computational System and Enhanced Selection Method” (Southern Methodist University, priority 2019, published 2021).

“Also recorded” adds a separate entry of the source.

The target of data set [1] is T1, cysteineless mouse P-glycoprotein (Mus musculus, UniProt P21447, C1070A/C1121A/C1223A/C133A/C427A/C638A/C669A/C713A/C952A).
T1 construct: made in house; host or cells: Pichia pastoris
As to the kind of experiment: SL-ATP (spin-labeled ATP analog) binding titration by ESR. Particulars: for Maximum ATP binding: in the presence of the compound, ± standard deviation. On the procedure:
Effects of 29 variants on binding of an ATP-analog to purified P-glycoprotein. ATP binding in the presence of the 29 variants was assessed in titration assays using a spin-labeled analog of ATP, 2′,3′-SL-ATP (2′,3′-(2,2,5,5,-tetramethyl-3-pyrroline-1-oxyl-3-carboxylic acid ester) ATP; (2′,3′ indicates a rapid equilibrium of the ester bond between the C2′ and C3′ of the ribose moiety))^48-50, and electron spin resonance spectroscopy as described in^26. Due to the lower stability of the human P-glycoprotein in the extended times needed for these experiments, the cysteineless mouse protein was used here. The goal was to assess whether binding of the 29 variants to P-gp affected nucleotide binding to the protein.
ESR Measurements. ESR measurements were as described in^26. The amount of protein-bound spin-labeled (SL) adenine nucleotide was determined as the difference between the known total concentration of SL-ATP (2′,3′-(2,2,5,5,-tetramethyl-3-pyrroline-1-oxyl-3-carboxylic acid ester) —ATP^48) added and the free spin-labeled nucleotide (SL-ANP) observed in the experiment. Hyperbolic curve fitting of the results was performed using GraphPad Prism 7 to determine maximum binding and apparent affinity for the spin-labeled nucleotide. The equation used for the fitting the curves was […], where P1 corresponds to the maximum binding of SL-ANP (moles of SL-ANP bound per mole P-gp), and P2 equals the apparent dissociation constant for SL-ANP. To quantify the amount of free SL-ANP, standard curves were established where the signal amplitude of the high field signal of the ESR spectra of free SL-ANP in the absence of protein was correlated to the concentration of SL-ANP added. All ESR measurements were performed using a Bruker EMX 6/1 ESR spectrophotometer operating in X-band mode and equipped with a high sensitivity cavity. Spectra were acquired at a microwave frequency of 9.33 GHz, microwave power of 12.63 mW, 100 kHz modulation frequency and a resolution of 1024 points. The centerfield of the scan was at 3325 G and an area of 100 G was scanned. The peak to peak modulation amplitude was 1G and the time constant was set to 10.240 ms. The conversion time was 163.84 ms, resulting in a total time sweep of 167.772 s. The signal gain was adjusted for the SL-ATP concentrations in the different experiments.

Data set [2] addresses T2, P-gp-catalyzed transport of calcein AM in DU145TXR cells (Homo sapiens, UniProt P08183).
T2 construct: DU145 human prostate cancer cells^52 as well as the multidrug resistant sub-line, DU145TXR; endogenous in cells; host or cells: DU145TXR (paclitaxel-selected sub-line of human DU145 prostate cancer cells)
In words: Calcein AM accumulation assay. Format: cell-based. The following applies: without pre-incubation, compared to parental 29, 5 μM stated for Group 2.

Data set [3] addresses T3, Cysteineless Mouse MDR3 P-glycoprotein (Mus musculus, UniProt P21447, C1070A/C1121A/C1223A/C133A/C427A/C638A/C669A/C713A/C952A).
T3 construct: made in house; host or cells: Pichia pastoris
In words: ATPase activity assay (basal and verapamil-stimulated), purified P-gp in mixed micelles. The following applies: for Effect on stimulated ATPase / Stimulated ATPase: in the presence of verapamil; for Stimulated ATPase / Basal ATPase: ± standard deviation; for Effect on basal ATPase / Basal ATPase: no added transport substrate. Format: biochemical. On the procedure:
Evaluation of mode of inhibition of P-glycoprotein by Group 1 and Group 2 variants of compound 29. To assess the mode of inhibition of P-gp by the novel variants of P-gp inhibitor 29, ATP hydrolysis by P-gp was evaluated in the presence or absence of the variants. […] Murine P-gp (MDR3) expressed in Pichia pastoris that had all naturally occurring cysteines replaced with alanine, was used^45, 46. It is widely assumed that the ATP hydrolytic rate of P-gp is stimulated in the presence of transport substrates when compared to ATP hydrolysis in the absence of transport substrates. Assays comparing these rates can therefore be useful not only in identifying inhibitors of P-gp catalyzed ATP hydrolysis, but also to potentially infer whether a compound might be a transport substrate if basal ATPase rates are stimulated by the addition of a compound.
(§1) P-glycoprotein Purification. Cysteine-less MDR3 and the human normal MDR1 P-glycoprotein was recombinantly expressed in the yeast Pichia pastoris essentially as in^45, 46 and used for assaying ATP hydrolysis and ATP binding to the protein in the presence of the 29-variants. Purification of the protein was performed as described^49 with small modifications resulting in highly enriched P-gp in mixed micelles containing dodecyl maltoside (DDM) and lysophosphatidyl choline^26.
(§2) ATPase Activity Assays. ATP hydrolysis activity was measured using a coupled enzyme assay^72 as modified in reference^26.

Data set [4] concerns the target T4, Normal Human MDR1 P-glycoprotein (Homo sapiens, UniProt P08183).
T4 construct: made in house; host or cells: Pichia pastoris (P-gp); E. coli BL21 (DE3) (MSP1E3D1)
As to the kind of experiment: ATPase activity assay (basal and verapamil-stimulated), P-gp in nanodiscs. The data set is classed as biochemical. The following applies: for Effect on stimulated ATPase / Stimulated ATPase: in the presence of verapamil; for Stimulated ATPase / Basal ATPase: ± standard deviation; for Effect on basal ATPase / Basal ATPase: no added transport substrate.
Source text: To assess whether the observed discrepancies of compounds stimulating basal P-gp ATPase activity but not being transport substrates of the human pump in the cell culture assessments were due to the fact that these biochemical assays used a cysteineless variant of the mouse MDR3 P-glycoprotein, the experiments were repeated using normal human MDR1 P-gp. In order to stabilize the human protein for the activity assays, the protein was assembled into membrane nanodiscs as described herein.
as §1
Nanodisc assembly. Human P-gp in mixed detergent micelles obtained during protein purification, was reconstituted into nanodiscsas described in references^73, 74 with small modifications. […] The detergent was removed with Bio-Beads™ SM-2 Adsorbent Media (BioRad). Ni-NTA Agarose (Qiagen) chromatography was used to purify P-gp reconstituted nanodiscs using 6 bed volumes of start buffer (20% (v/v) glycerol, 50 mM Tris-CL pH 7.5 at 4° C., 50 mM NaCl), and 5 bed volumes of elution buffer (20% (v/v) glycerol, 50 mM Tris-Cl pH 7.5 at 4° C., 50 mM NaCl, 300 mM imidazole).
as §2

T2 sequence (P08183 whole entry): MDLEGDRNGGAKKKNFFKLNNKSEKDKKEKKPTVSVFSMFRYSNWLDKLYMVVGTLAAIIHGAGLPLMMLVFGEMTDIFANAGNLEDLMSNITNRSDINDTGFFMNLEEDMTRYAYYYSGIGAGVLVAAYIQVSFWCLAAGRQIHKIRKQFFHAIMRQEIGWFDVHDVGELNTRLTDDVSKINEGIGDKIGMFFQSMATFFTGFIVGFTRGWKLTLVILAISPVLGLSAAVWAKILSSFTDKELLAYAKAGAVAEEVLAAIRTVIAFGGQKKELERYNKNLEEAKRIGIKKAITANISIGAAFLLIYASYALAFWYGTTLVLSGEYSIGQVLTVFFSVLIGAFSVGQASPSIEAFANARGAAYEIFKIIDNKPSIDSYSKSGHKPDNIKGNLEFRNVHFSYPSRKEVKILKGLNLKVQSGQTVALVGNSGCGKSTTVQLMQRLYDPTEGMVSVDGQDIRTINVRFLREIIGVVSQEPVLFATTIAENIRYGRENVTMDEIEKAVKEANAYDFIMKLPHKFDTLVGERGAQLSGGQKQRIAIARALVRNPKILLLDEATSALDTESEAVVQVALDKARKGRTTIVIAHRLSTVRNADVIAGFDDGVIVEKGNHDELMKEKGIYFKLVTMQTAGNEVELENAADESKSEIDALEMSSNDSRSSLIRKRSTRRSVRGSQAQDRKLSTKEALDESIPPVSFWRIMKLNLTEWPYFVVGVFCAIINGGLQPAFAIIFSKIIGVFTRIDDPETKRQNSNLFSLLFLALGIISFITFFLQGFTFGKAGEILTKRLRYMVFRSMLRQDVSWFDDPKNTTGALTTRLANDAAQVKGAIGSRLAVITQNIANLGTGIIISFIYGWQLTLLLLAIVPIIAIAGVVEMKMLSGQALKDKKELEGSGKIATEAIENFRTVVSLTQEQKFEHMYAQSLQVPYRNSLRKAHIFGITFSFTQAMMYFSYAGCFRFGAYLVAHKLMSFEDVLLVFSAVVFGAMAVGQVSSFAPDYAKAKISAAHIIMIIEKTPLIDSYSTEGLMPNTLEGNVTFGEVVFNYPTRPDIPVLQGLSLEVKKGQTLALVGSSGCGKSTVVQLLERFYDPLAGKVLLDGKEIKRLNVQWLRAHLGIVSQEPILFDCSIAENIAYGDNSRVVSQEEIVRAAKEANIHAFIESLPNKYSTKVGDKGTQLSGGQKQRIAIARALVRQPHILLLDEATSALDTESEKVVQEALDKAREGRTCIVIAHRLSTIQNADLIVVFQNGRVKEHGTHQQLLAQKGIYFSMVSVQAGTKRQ
T4 sequence (P08183 whole entry): as above
T1 sequence (P21447 whole entry C133A/C427A/C638A/C669A/C713A/C952A/C1070A/C1121A/C1223A): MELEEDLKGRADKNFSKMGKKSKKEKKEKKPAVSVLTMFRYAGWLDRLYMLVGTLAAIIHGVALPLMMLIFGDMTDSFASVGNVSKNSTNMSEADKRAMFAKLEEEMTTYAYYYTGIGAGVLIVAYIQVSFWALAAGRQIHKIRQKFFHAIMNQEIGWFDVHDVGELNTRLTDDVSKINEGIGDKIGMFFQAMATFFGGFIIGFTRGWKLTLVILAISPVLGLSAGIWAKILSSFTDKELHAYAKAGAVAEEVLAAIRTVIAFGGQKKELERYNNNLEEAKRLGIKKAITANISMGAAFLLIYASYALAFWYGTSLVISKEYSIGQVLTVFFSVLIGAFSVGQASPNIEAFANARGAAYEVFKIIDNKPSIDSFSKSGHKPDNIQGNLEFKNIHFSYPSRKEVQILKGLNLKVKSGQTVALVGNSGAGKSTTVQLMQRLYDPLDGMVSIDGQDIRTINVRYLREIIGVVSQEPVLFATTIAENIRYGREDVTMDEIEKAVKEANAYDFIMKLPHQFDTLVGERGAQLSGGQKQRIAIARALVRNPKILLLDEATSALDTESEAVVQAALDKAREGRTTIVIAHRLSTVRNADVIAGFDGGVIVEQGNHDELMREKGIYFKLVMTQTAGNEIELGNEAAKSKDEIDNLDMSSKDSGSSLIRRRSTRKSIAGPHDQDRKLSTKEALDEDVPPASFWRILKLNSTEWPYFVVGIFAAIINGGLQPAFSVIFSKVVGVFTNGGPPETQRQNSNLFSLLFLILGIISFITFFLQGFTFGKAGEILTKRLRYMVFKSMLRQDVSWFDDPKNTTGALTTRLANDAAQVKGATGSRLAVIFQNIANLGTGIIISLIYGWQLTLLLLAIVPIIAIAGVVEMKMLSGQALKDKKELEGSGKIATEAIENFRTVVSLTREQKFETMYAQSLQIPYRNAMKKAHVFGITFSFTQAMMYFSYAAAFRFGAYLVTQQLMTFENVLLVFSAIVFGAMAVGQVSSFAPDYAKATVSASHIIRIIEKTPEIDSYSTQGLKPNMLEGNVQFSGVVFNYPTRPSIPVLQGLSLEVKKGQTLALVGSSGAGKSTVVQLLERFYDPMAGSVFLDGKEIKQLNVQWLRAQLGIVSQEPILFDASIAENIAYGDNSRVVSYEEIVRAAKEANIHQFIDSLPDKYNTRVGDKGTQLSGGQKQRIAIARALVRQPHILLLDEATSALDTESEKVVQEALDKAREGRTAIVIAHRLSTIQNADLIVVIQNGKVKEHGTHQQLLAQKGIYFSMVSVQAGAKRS
T3 sequence (P21447 whole entry C133A/C427A/C638A/C669A/C713A/C952A/C1070A/C1121A/C1223A): as above

For `Cc1cc(C)c(-c2cc(NC(=O)CSCC(=O)NCc3ccc(F)cc3)n(-c3ccccc3)n2)cc1C` [29-286], in data set [1], the “Effect on SL-ANP binding” value is recorded as “no” and the “Maximum ATP binding” value was found to be 1.9 ± 0.1 mol SL-ANP bound/mol P-gp. Further, in data set [2], the “Calcein accumulation in DU145TXR (in words)” value (“Calcein accumulation” for short) is reported as “comparable to 29”. Moreover, in data set [3] (listed as 286), the “Effect on stimulated ATPase” value is reported as “no significant effect; also recorded: little effect” and the “Effect on basal ATPase” value is reported as “only marginally or with no statistical significance”. In addition, in data set [3] (listed as SMU29-286), the “Effect on stimulated ATPase” value is “none” and the “Effect on basal ATPase” value was “none”. Moreover, in data set [3], the “Stimulated ATPase” value is recorded as 98 ± 2 % of DMSO and the “Basal ATPase” value is reported as 143 ± 32 % of DMSO. For the same compound, in data set [4], the “Effect on stimulated ATPase” value was “inhibitor”, the “Stimulated ATPase” value was 59 ± 4 % of DMSO, the “Effect on basal ATPase” value is recorded as “none” and the “Basal ATPase” value is given as 95 ± 3 % of DMSO.

On to `Cc1cc(C)c(-c2cc(NC(=O)CSc3nnc4c(n3)[nH]c3ccccc34)n(-c3ccccc3)n2)cc1C` [29-541, 2-((5H-[1,2,4]triazino[5,6-b]indol-3-yl)thio)-N-(1-phenyl-3-(2,4,5-trimethylphenyl)-1H-pyrazol-5-yl)acetamide], for which, in data set [1], the “Effect on SL-ANP binding” value was “no” and the “Maximum ATP binding” value was determined as 1.8 ± 0.1 mol SL-ANP bound/mol P-gp. In data set [2] (listed as 541), the “Calcein accumulation” value is “performed relatively equally to 29; also recorded: performed similar to the parental compound”. In data set [3] (listed as 541), the “Effect on stimulated ATPase” value is “inhibited activity similar to parental compound 29; also recorded: inhibited verapamil-stimulated ATPase activity” and the “Effect on basal ATPase” value is given as “did not significantly affect; also recorded: did not activate”. Further, in data set [3] (listed as SMU29-541), the “Effect on stimulated ATPase” value was “inhibitor” and the “Effect on basal ATPase” value was “none”. Also, in data set [3], the “Stimulated ATPase” value is on record as 68 ± 7 % of DMSO and the “Basal ATPase” value was 101 ± 12 % of DMSO. Besides, in data set [4], the “Effect on stimulated ATPase” value is “inhibitor”, the “Stimulated ATPase” value is on record as 66 ± 6 % of DMSO, the “Effect on basal ATPase” value was “none” and the “Basal ATPase” value is recorded as 87 ± 9 % of DMSO.

Turning to `Cc1cc(C)c(-c2cc(NC(=O)CSc3cccc(NC(=O)c4cncc(Br)c4)c3)n(-c3ccccc3)n2)cc1C` [29-551, 5-bromo-N-(3-((2-oxo-2-((1-phenyl-3-(2,4,5-trimethylphenyl)-1H-pyrazol-5-yl)amino)ethyl)thio)phenyl)nicotinamide], in data set [1], the “Effect on SL-ANP binding” value is on record as “no” and the “Maximum ATP binding” value is reported as 1.7 ± 0.1 mol SL-ANP bound/mol P-gp. Also, the “Calcein accumulation” value in data set [2] is listed as “marginally higher calcein accumulation than parental compound 29”. In data set [3] (listed as 551), the “Effect on stimulated ATPase” value is “inhibited activity similar to parental compound 29; also recorded: inhibited verapamil-stimulated ATPase activity” and the “Effect on basal ATPase” value is “stimulated basal ATPase activity”. For the same compound, in data set [3] (listed as SMU29-551), the “Effect on stimulated ATPase” value is listed as “inhibitor” and the “Effect on basal ATPase” value is given as “stimulator”. Besides, in data set [3], the “Stimulated ATPase” value is listed as 62 ± 5 % of DMSO and the “Basal ATPase” value is given as 150 ± 6 % of DMSO. Also, in data set [4], the “Effect on stimulated ATPase” value is “inhibitor”, the “Stimulated ATPase” value was 27 ± 1 % of DMSO, the “Effect on basal ATPase” value is recorded as “inhibitor” and the “Basal ATPase” value is listed as 72 ± 9 % of DMSO.
